Experimental findings from ChEMBL document CHEMBL4507258 (2021) are described below.

Assay [1] has as its target D(4) dopamine receptor (Homo sapiens, UniProt P21917). Description: GPCRScan assay: inhibition of D4. The arrangement: radioligand conc. used [nm] 0.6 – 1.7, parental cells Stable HEK.
In assay [2] the target is Mu-type opioid receptor (Homo sapiens, UniProt P35372). Kind of assay: GPCRScan assay: inhibition of MOR. The arrangement: radioligand conc. used [nm] 1.0 – 2.0, parental cells stable HEK.
For assay [3], the target named is Sodium-dependent noradrenaline transporter (Homo sapiens) (UniProt P23975). The following applies: Compound concentration 10.0 uM.
Assay [4] addresses Calcium/calmodulin-dependent protein kinase type 1B (Homo sapiens, UniProt Q6P2M8). Kind of assay: Inhibition of PNCK at compound concentration of 10.0 uM using the ScanMax (DiscoverX).
The target in assay [5] is Death-associated protein kinase 3 (Homo sapiens, UniProt O43293). Description: Inhibition of DAPK3 at compound concentration of 10.0 uM using the ScanMax (DiscoverX).
The target of assay [6] is Adenosine receptor A2a (Homo sapiens) (UniProt P29274). Description: Adenosine A 2A receptor (h) CEREP ligand profiling. As to conditions: Compound concentration 10.0 uM; call rule not given here.
Assay [7] has as its target Adenosine receptor A3 (Homo sapiens) (UniProt P0DMS8). Kind of assay: Adenosine A 3 receptor (h) CEREP ligand profiling. As to conditions: Compound concentration 10.0 uM.
Assay [8] addresses Adrenergic receptor alpha-2 (Homo sapiens) (UniProt P08913+P18825+P18089). Kind of assay: alpha2-adrenoceptor (non-selective) CEREP ligand profiling. It is filed as protein assay. The following applies: Compound concentration 10.0 uM.
Assay [9] addresses Type-2 angiotensin II receptor (Homo sapiens) (UniProt P50052). Description: Angiotensin AT2 receptor (h) CEREP ligand profiling. The following applies: Compound concentration 10.0 uM.
Assay [10] addresses Translocator protein (Rattus norvegicus) (UniProt P16257). Kind of assay: Benzodiazepine (peripheral) CEREP ligand profiling. The following applies: Compound concentration 10.0 uM.
Assay [11] deals with Bombesin receptor (Homo sapiens) (UniProt P28336+P32247+P30550). Kind of assay: Bombesin receptor CEREP ligand profiling. The following applies: Compound concentration 10.0 uM. It counts as protein assay.
Assay [12] deals with Calcitonin gene-related peptide type 1 receptor (Homo sapiens) (UniProt Q16602). Description: Calcitonin gene-related peptide CEREP ligand profiling. The following applies: Compound concentration 10.0 uM.
In assay [13] the target is D(3) dopamine receptor (Homo sapiens) (UniProt P35462). Kind of assay: Dopamine D3 receptor (h) CEREP ligand profiling. As to conditions: Compound concentration 10.0 uM.
Assay [14] concerns the target T1, D(4) dopamine receptor (Homo sapiens) (UniProt P21917).
T1 sequence (whole entry): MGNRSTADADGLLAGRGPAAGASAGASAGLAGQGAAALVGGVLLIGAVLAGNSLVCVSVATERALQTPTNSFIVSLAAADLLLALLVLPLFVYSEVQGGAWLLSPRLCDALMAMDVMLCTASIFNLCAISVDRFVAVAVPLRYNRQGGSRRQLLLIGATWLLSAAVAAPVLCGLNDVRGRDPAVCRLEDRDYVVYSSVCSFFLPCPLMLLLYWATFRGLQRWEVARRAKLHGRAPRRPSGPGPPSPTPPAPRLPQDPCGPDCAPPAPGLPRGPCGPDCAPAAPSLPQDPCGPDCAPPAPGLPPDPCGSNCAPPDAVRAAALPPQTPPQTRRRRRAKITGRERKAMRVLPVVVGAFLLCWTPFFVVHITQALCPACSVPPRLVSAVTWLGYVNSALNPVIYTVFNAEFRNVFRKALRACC
Kind of assay: Dopamine D4 receptor (h) CEREP ligand profiling. The following applies: Compound concentration 10.0 uM.

The target in assay [15] is Sodium-dependent dopamine transporter (Homo sapiens) (UniProt Q01959). Kind of assay: Dopamine uptake (h) CEREP ligand profiling. As to conditions: Compound concentration 10.0 uM.
The nature of assay [16]: GABA receptor (non-selective) CEREP ligand profiling. The following applies: Compound concentration 10.0 uM.
Assay [17] deals with Muscarinic acetylcholine receptor M3 (Homo sapiens) (UniProt P20309). Description: Muscarinic M3 receptors (h) CEREP ligand profiling. As to conditions: Compound concentration 10.0 uM.
In assay [18] the target is Muscarinic acetylcholine receptor M5 (Homo sapiens) (UniProt P08912). Kind of assay: Muscarinic M5 receptors (h) CEREP ligand profiling. As to conditions: Compound concentration 10.0 uM.
Assay [19] concerns the target Neuromedin-K receptor (Homo sapiens) (UniProt P29371). Kind of assay: NK3 tachykinin receptor (h) CEREP ligand profiling. As to conditions: Compound concentration 10.0 uM.
For assay [20], the target named is Substance-P receptor (Homo sapiens) (UniProt P25103). Kind of assay: Neurokinin-1 receptor (h) CEREP ligand profiling. As to conditions: Compound concentration 10.0 uM.
Assay [21] addresses Neuropeptide Y receptor type 1 (Homo sapiens) (UniProt P25929). Description: Y1 receptor CEREP ligand profiling. As to conditions: Compound concentration 10.0 uM.
Assay [22] concerns the target Kappa-type opioid receptor (Homo sapiens, UniProt P41145). Description: kappa-Opioid receptor (h) CEREP ligand profiling. As to conditions: Compound concentration 10.0 uM.
Assay [23] deals with Glutamate NMDA receptor (Rattus norvegicus) (UniProt P35439+Q00959+Q00960+Q00961+Q62645+Q8VHN2+Q9R1M7). Kind of assay: PCP receptor CEREP ligand profiling. The following applies: Compound concentration 10.0 uM. It is filed as protein-complex assay.
The target in assay [24] is Prostacyclin receptor (Homo sapiens) (UniProt P43119). Description: Prostaglandin I2 receptor CEREP ligand profiling. As to conditions: Compound concentration 10.0 uM.
For assay [25], the target named is P2X receptor (Rattus norvegicus) (UniProt P51579+P49653+P51578+Q64663+P47824+P51577+P49654). Kind of assay: P2X-purinergic receptor CEREP ligand profiling. The following applies: Compound concentration 10.0 uM. It is filed as protein assay.
The target of assay [26] is T2, 5-hydroxytryptamine receptor 1A (Homo sapiens) (UniProt P08908).
T2 sequence (whole entry): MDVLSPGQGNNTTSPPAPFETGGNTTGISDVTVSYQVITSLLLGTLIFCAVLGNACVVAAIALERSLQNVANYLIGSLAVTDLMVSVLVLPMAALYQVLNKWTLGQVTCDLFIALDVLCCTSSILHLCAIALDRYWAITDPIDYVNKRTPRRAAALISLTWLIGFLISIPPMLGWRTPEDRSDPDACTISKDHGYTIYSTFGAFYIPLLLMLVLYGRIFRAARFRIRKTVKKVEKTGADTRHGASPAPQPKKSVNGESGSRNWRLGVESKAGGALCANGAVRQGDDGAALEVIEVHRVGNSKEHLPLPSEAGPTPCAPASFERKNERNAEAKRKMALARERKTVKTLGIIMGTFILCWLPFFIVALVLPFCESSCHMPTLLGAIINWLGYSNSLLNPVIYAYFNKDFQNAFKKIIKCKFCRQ
Kind of assay: 5-Hydroxytryptamine1A (h) CEREP ligand profiling. The following applies: Compound concentration 10.0 uM.

Assay [27] has as its target 5-hydroxytryptamine receptor 2C (Homo sapiens) (UniProt P28335). Description: 5-Hydroxytryptamine2C (h) CEREP ligand profiling. As to conditions: Compound concentration 10.0 uM.
In assay [28] the target is 5-hydroxytryptamine receptor 5A (Homo sapiens) (UniProt P47898). Description: 5-Hydroxytryptamine5A (h) CEREP ligand profiling. The following applies: Compound concentration 10.0 uM.
Assay [29] addresses 5-hydroxytryptamine receptor 6 (Homo sapiens) (UniProt P50406). Kind of assay: 5-Hydroxytryptamine6 (h) CEREP ligand profiling. The following applies: Compound concentration 10.0 uM.
Assay [30] addresses Somatostatin receptor (Homo sapiens) (UniProt P35346+P30874+P31391+P30872+P32745). Kind of assay: Somatostatin receptor CEREP ligand profiling. It counts as protein assay. The following applies: Compound concentration 10.0 uM.
The target in assay [31] is Vasopressin V2 receptor (Homo sapiens) (UniProt P30518). Kind of assay: Vasopresine V2 receptor CEREP ligand profiling. As to conditions: Compound concentration 10.0 uM.
The target of assay [32] is Calcium-activated potassium channel (Homo sapiens) (UniProt Q92952+Q9UGI6+Q12791+O15554+Q9H2S1+A8MYU2). Description: K+ channel (Ca2+-dependent) CEREP ligand profiling. It is filed as protein assay. The following applies: Compound concentration 10.0 uM.
The target of assay [33] is Beta-1 adrenergic receptor (Homo sapiens) (UniProt P08588). As to conditions: Compound concentration 10.0 uM.
Assay [34] deals with Endothelin receptor type B (Homo sapiens) (UniProt P24530). The following applies: Compound concentration 10.0 uM.

Prostacyclin receptor (Homo sapiens), sequence (P43119 whole entry): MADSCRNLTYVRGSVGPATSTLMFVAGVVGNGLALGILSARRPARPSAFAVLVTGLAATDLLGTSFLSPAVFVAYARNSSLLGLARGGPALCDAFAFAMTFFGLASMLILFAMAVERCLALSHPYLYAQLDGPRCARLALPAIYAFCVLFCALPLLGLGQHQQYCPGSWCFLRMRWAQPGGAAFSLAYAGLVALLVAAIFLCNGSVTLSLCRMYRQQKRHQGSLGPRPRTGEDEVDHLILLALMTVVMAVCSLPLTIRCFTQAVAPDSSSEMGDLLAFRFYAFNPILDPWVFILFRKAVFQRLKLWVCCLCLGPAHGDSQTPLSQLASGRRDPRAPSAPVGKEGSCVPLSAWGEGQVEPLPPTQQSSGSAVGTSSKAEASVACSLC
Type-2 angiotensin II receptor (Homo sapiens), sequence (P50052 whole entry): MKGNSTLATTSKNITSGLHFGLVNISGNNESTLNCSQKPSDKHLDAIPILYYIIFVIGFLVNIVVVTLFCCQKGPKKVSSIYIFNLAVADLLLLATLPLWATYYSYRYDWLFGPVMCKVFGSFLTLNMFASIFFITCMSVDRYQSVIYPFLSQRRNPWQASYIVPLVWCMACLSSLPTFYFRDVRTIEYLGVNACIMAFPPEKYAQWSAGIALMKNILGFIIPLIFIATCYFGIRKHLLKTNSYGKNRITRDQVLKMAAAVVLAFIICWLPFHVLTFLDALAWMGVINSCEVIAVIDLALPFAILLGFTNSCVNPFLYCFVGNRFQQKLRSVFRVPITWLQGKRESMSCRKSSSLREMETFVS
Kappa-type opioid receptor, sequence (P41145 whole entry): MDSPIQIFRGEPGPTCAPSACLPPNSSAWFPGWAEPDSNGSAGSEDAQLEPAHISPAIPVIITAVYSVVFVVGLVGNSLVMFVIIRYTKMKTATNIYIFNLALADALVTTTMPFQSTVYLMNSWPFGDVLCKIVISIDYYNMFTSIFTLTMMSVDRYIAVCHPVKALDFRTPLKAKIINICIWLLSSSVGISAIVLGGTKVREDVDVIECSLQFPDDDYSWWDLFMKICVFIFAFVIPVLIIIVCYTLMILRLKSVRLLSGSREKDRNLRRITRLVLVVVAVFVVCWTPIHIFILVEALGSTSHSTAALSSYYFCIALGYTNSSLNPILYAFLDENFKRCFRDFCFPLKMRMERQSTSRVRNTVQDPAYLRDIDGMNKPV
Bombesin receptor (Homo sapiens), sequence (P28336 whole entry, looked up): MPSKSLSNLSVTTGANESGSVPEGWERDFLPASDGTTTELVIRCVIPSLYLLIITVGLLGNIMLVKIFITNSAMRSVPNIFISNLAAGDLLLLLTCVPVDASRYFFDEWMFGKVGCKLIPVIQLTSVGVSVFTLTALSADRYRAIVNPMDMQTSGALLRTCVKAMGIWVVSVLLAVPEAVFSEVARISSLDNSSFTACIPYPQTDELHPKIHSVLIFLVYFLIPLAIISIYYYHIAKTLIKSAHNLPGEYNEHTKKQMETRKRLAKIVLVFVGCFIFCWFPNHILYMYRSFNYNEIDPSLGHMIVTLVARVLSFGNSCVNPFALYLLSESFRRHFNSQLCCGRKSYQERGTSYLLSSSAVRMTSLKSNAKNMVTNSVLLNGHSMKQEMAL
Bombesin receptor (Homo sapiens), sequence (P30550 whole entry, looked up): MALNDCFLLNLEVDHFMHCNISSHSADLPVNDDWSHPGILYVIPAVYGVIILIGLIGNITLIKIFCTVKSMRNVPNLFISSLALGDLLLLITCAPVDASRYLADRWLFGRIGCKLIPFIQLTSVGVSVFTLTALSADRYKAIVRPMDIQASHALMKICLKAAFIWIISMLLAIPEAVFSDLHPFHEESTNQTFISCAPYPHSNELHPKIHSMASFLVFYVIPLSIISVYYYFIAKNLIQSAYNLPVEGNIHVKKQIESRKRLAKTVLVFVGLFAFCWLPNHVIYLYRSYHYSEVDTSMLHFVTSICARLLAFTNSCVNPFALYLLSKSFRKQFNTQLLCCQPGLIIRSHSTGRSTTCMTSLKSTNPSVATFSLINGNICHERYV
Bombesin receptor (Homo sapiens), sequence (P32247 whole entry, looked up): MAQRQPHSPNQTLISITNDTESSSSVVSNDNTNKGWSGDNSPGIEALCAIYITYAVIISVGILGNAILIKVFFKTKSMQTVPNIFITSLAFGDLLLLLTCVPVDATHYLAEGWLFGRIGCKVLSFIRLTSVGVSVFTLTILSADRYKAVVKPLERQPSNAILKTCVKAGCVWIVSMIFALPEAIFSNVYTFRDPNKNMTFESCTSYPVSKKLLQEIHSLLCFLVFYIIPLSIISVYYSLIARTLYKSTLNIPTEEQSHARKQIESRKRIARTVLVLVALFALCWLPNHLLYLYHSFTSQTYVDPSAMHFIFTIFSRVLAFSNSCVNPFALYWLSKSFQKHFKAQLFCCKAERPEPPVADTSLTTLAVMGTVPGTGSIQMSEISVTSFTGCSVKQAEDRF
D(3) dopamine receptor (Homo sapiens), sequence (P35462 whole entry): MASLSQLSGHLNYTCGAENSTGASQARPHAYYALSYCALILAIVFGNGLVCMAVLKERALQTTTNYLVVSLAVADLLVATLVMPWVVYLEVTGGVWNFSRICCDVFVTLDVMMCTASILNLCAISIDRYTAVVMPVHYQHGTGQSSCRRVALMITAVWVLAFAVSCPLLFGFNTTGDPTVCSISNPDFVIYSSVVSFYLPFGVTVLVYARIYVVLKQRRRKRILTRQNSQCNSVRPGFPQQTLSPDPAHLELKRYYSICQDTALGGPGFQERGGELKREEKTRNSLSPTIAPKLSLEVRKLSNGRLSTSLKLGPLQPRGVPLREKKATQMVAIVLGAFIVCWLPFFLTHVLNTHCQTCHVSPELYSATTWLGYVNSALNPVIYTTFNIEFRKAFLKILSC
5-hydroxytryptamine receptor 2C (Homo sapiens), sequence (P28335 whole entry): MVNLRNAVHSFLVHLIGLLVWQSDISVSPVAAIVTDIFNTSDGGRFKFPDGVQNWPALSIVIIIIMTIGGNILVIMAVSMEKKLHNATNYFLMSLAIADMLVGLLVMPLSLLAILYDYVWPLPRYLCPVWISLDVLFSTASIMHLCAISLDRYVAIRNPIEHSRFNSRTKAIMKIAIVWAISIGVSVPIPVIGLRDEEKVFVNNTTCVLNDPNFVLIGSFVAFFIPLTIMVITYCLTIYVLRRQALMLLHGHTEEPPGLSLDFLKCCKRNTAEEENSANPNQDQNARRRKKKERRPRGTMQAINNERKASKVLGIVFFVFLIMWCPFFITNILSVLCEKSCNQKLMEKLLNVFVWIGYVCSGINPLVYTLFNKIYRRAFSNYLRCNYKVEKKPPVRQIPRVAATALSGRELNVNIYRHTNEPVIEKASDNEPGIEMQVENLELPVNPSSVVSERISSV
Sodium-dependent dopamine transporter (Homo sapiens), sequence (Q01959 whole entry): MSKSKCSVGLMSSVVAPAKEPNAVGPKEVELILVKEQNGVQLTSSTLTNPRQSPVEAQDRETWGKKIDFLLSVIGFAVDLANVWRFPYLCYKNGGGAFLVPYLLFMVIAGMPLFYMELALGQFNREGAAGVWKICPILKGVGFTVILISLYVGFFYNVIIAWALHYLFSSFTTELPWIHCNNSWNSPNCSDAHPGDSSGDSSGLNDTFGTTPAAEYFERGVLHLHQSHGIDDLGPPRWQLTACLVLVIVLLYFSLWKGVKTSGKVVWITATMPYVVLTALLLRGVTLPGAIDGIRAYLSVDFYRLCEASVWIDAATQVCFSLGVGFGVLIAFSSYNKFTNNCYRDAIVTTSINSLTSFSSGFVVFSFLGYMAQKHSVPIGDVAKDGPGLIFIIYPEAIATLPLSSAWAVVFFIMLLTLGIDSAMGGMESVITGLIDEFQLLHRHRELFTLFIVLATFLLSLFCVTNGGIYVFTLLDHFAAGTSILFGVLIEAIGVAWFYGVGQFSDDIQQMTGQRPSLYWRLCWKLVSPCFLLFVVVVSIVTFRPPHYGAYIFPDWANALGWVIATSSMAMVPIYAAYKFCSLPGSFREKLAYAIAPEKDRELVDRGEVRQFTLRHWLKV
Neuropeptide Y receptor type 1 (Homo sapiens), sequence (P25929 whole entry): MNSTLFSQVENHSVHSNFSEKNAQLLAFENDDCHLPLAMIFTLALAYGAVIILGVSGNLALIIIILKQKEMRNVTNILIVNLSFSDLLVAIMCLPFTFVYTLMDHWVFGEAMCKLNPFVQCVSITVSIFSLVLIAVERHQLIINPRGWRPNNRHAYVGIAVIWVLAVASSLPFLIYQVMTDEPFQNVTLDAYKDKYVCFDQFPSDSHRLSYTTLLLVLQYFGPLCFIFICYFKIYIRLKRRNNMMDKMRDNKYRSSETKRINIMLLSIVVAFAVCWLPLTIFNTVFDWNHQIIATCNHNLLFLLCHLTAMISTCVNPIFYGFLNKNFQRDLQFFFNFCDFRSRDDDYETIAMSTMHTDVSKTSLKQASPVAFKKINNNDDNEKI
Adenosine receptor A3 (Homo sapiens), sequence (P0DMS8 whole entry): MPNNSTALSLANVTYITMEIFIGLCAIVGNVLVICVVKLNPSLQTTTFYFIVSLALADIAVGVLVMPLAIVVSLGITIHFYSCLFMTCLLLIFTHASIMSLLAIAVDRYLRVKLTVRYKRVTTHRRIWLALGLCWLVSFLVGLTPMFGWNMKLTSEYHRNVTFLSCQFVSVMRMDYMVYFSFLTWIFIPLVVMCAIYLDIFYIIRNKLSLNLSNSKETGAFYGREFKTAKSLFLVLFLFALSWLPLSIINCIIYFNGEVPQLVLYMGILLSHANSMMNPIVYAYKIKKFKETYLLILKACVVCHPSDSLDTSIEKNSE
Adenosine receptor A2a (Homo sapiens), sequence (P29274 whole entry): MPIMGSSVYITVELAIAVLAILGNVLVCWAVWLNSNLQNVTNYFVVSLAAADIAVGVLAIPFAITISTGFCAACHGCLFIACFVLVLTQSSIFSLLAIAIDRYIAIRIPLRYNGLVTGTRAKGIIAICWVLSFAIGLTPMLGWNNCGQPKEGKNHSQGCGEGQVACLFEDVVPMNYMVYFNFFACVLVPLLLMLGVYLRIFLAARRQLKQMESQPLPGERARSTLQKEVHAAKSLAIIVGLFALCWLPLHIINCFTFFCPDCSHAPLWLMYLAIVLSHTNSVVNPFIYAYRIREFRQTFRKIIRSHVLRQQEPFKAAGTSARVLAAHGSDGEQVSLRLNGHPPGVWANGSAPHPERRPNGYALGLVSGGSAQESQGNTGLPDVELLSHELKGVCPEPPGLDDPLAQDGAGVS

A word on the Ki: it is a measure of affinity in units of concentration, obtained from inhibition or displacement. The inhibition is the change of the read-out against control, counted positive when it falls. Take `CCCCN(CCCC)C(=O)CN1C[C@@H](c2cc(OC)c3c(c2)OCO3)[C@H](C(=O)O)[C@H]1CC(C)(C)CCC` [A-545]: the Ki in assay [1] was found to be 0.0055 µM; in [2], 2.78 µM. In addition, the inhibition in assay [3] was 38.5%.

What is called Kd is the concentration at which binding is half-saturated. For `CCCCN(CCCC)C(=O)CN1C[C@H](c2cc(OC)c3c(c2)OCO3)[C@@H](C(=O)O)[C@@H]1CC(C)(C)CCC` [ABT-546], the Kd in assay [4] and in assay [5] was > 10 µM (not active) each time. Also, the inhibition is less than 10% in [6]; 32% in assay [7]; 18% in assay [8]; less than 10% in assay [9]; less than 10% in assay [10]; less than 10% in assay [11]. Moreover, the inhibition in assay [12], in [13], in assay [14], in [15], in [16] and in [17] was less than 10% in each case. Besides, the inhibition in assay [18] is less than 10%; in assay [19], less than 10%; in [20], less than 10%; in assay [21], less than 10%; in [22], 28%; in [23], less than 10%. Also, the inhibition in assay [24] was 15%; in assay [25], 37%; in assay [26], less than 10%; in assay [27], less than 10%; in assay [28], less than 10%; in assay [29], less than 10%. For the same molecule, the inhibition is less than 10% in assay [30]; less than 10% in assay [31]; less than 10% in [32]; -6.6% in assay [33]; 56% in assay [34].
